Test results from US8642609B2, “Modulators of ATP-binding cassette transporters” (Vertex Pharmaceuticals Incorporated, priority 2003, dated 2014).

Biological target: T1, ΔF508-CFTR (Homo sapiens, UniProt P13569, DEL508-508)
T1 construct: expressed in transfected cells
Assay: Membrane potential optical assay (FRET/VIPR), identification of correction compounds
Assay type: cell-based
Conditions: for Emax: relative efficacy
Outline: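 NIH3T3 cells stably expressing ΔF508-CFTR incubated 16 hrs at 37° C in serum-free medium with test compound; 27° C incubation as positive control. CFTR then activated with 10 μM forskolin plus 20 μM genistein in Cl^−-free medium; depolarization read by DiSBAC2(3)/CC2-DMPE FRET on VIPR.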

T1 sequence (P13569 with tags, fused parts or gaps DEL508-508): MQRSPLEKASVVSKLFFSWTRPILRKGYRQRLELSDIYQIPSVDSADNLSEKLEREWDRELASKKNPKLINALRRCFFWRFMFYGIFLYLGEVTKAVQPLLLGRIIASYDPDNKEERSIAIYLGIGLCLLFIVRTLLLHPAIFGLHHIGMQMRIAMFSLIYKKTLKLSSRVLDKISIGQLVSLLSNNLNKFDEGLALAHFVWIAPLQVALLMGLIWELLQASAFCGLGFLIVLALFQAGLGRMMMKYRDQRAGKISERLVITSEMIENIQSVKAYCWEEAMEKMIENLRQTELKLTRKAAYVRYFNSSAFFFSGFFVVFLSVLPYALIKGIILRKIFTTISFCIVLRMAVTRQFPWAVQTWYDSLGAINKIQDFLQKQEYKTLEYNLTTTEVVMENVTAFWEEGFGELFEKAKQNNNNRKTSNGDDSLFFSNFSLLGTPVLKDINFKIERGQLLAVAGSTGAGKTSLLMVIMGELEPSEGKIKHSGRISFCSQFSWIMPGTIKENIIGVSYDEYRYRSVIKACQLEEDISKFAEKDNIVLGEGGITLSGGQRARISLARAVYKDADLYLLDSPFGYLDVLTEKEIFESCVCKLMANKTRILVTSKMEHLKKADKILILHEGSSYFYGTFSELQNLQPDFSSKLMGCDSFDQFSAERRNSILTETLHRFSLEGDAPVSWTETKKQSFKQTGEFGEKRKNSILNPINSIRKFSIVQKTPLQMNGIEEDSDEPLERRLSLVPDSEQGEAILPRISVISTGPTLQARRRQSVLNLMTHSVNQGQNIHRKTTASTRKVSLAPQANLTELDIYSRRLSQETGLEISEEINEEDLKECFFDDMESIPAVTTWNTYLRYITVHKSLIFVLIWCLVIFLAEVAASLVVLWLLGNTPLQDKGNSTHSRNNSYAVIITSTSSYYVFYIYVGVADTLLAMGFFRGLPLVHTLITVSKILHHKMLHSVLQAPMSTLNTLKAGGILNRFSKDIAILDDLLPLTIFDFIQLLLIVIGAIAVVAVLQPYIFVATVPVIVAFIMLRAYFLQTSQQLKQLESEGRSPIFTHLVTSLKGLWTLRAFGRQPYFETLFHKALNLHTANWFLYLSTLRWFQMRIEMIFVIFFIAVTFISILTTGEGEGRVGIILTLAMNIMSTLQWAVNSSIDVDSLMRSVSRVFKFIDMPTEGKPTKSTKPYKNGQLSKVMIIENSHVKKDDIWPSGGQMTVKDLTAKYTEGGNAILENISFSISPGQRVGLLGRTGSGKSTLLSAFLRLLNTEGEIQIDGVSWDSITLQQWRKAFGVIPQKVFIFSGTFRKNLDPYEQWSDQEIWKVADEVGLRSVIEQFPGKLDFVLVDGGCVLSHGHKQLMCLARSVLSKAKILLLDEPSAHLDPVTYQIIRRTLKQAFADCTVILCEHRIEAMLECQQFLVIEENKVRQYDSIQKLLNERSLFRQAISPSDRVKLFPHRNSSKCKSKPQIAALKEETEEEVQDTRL

Structure (SMILES)	EC50 [µM]	Emax [%]
CC(=O)NCCn1c(C(C)N2CCN(S(=O)(=O)c3ccc(Cl)cc3)CC2)nc2ccccc2c1=O (stereo not shown) [compound 289]	25 to 60	25 to 100
Cc1c(S(=O)(=O)N2CCN(C(C)c3nc4ccccc4c(=O)n3C)CC2)sc2ccc(F)cc12 (stereo not shown) [compound 290]	25 to 60	25 to 100
CC(c1nc2ccccc2c(=O)n1C)N1CCN(S(=O)(=O)c2ccc(C(N)=O)cc2)CC1 (stereo not shown) [compound 291]	25 to 60	< 25
CC(c1nc2ccccc2c(=O)n1C)N1CCN(S(=O)(=O)N(C)C)CC1 (stereo not shown) [compound 292]	25 to 60	< 25
CC(c1nc2ccccc2c(=O)n1C)N1CCN(S(=O)(=O)c2ccc(OC(F)F)cc2)CC1 (stereo not shown) [compound 293]	25 to 60	> 100
COc1ccc(S(=O)(=O)N2CCN(C(C)c3nc(OCC4COCO4)c4ccccc4n3)CC2)cc1 (stereo not shown) [compound 294]	25 to 60	25 to 100
COCCOc1nc(C(C)N2CCN(S(=O)(=O)c3ccc(OC)cc3)CC2)nc2ccccc12 (stereo not shown) [compound 295]	25 to 60	25 to 100
COc1ccc(S(=O)(=O)N2CCN(C(C)c3nc(OCC4(C)COCOC4)c4ccccc4n3)CC2)cc1 (stereo not shown) [compound 296]	10 to 25	> 100
COc1ccc(S(=O)(=O)N2CCN(C(C)c3nc(Oc4ccncc4)c4ccccc4n3)CC2)cc1 (stereo not shown) [compound 297]	< 10	25 to 100
COc1ccc(S(=O)(=O)N2CCN(C(C)c3nc(OC4CCCCC4)c4ccccc4n3)CC2)cc1 (stereo not shown) [compound 298]	< 10	> 100
COc1ccc(S(=O)(=O)N2CCN(C(C)c3nc(OCCN4CCCC4)c4ccccc4n3)CC2)cc1 (stereo not shown) [compound 299]	10 to 25	25 to 100
COc1ccc(S(=O)(=O)N2CCN(C(C)c3nc(OC4CCOCC4)c4ccccc4n3)CC2)cc1 (stereo not shown) [compound 300]	25 to 60	> 100
COc1ccc(S(=O)(=O)N2CCN(C(C)c3nc(OCCN(C)C)c4ccccc4n3)CC2)cc1 (stereo not shown) [compound 301]	25 to 60	25 to 100
COc1ccc(S(=O)(=O)N2CCN(C(C)c3nc(N4CCCCC4)c4ccccc4n3)CC2)cc1 (stereo not shown) [compound 302]	< 10	> 100
COc1ccc(S(=O)(=O)N2CCN(C(C)c3nc(NC4CCCC4)c4ccccc4n3)CC2)cc1 (stereo not shown) [compound 303]	< 10	> 100
COc1ccc(S(=O)(=O)N2CCN(C(C)c3nc(NC4CCCCC4)c4ccccc4n3)CC2)cc1 (stereo not shown) [compound 304]	< 10	25 to 100
COc1ccc(S(=O)(=O)N2CCN(C(C)c3nc(N4CCCC(C)C4)c4ccccc4n3)CC2)cc1 (stereo not shown) [compound 305]	< 10	25 to 100
CC(c1nc2ccccc2c(=O)n1C)N(C)C1CCN(S(=O)(=O)c2ccc(Br)cc2)CC1 (stereo not shown) [compound 306]	25 to 60	25 to 100
COc1ccc(S(=O)(=O)Nc2ccc(NC(C)c3nc4ccccc4c(=O)n3C)cc2)cc1 (stereo not shown) [compound 307]	25 to 60	25 to 100
CC(Nc1ccc(NS(=O)(=O)c2ccc(Cl)cc2)cc1)c1nc2ccccc2c(=O)n1C (stereo not shown) [compound 308]	< 10	25 to 100
CC(Nc1ccc(NS(=O)(=O)c2ccc(Br)cc2)cc1)c1nc2ccccc2c(=O)n1C (stereo not shown) [compound 309]	< 10	25 to 100

Structure (SMILES)	EC50 [µM]	Emax [%]
COc1ccc(S(=O)(=O)N2CCN(C(C)c3nc(C(C)C)c4ccccc4n3)CC2)cc1 (stereo not shown) [compound 310]	< 10	25 to 100
COc1ccc(S(=O)(=O)N2CCN(C(C)c3nc(OC(C)(C)C)c4ccccc4n3)CC2)cc1 (stereo not shown) [compound 311]	< 10	> 100
COc1ccc(S(=O)(=O)N2CCN(C(C)c3ncc4ccccc4n3)CC2)cc1 (stereo not shown) [compound 312]	25 to 60	25 to 100
CC(c1ncc2ccccc2n1)N1CCN(S(=O)(=O)c2ccc(Br)cc2)CC1 (stereo not shown) [compound 313]	25 to 60	25 to 100
COc1ccc(S(=O)(=O)N2CCC(N(C)C(C)c3nc4ccccc4c(=O)n3C)CC2)cc1 (stereo not shown) [compound 314]	25 to 60	25 to 100
CC(c1nc2ccccc2c(=O)n1C)N(C)C1CCN(S(=O)(=O)c2ccc(Cl)cc2)CC1 (stereo not shown) [compound 315]	25 to 60	25 to 100
COc1ccc(S(=O)(=O)N2CCN(C(C)c3nc(N4CC(C)CC(C)C4)c4ccccc4n3)CC2)cc1 (stereo not shown) [compound 316]	25 to 60	25 to 100
COc1ccc(S(=O)(=O)N2CCN(C(C)c3nc(N4CCC(N5CCCCC5)CC4)c4ccccc4n3)CC2)cc1 (stereo not shown) [compound 317]	25 to 60	< 25
COc1ccc(S(=O)(=O)N2CCN(C(C)c3nc(N4CC[C@H](O)C4)c4ccccc4n3)CC2)cc1 (stereo partly shown) [compound 318]	25 to 60	25 to 100
COc1ccc(S(=O)(=O)N2CCN(C(C)c3nc(N4CCCCCC4)c4ccccc4n3)CC2)cc1 (stereo not shown) [compound 319]	< 10	25 to 100
COc1ccc(S(=O)(=O)N2CCN(C(C)c3nc(N4CCC(C)CC4)c4ccccc4n3)CC2)cc1 (stereo not shown) [compound 320]	< 10	> 100
COc1ccc(S(=O)(=O)N2CCN(C(C)c3nc(N4CCSCC4)c4ccccc4n3)CC2)cc1 (stereo not shown) [compound 321]	< 10	> 100
CCOC(=O)C1CCN(c2nc(C(C)N3CCN(S(=O)(=O)c4ccc(OC)cc4)CC3)nc3ccccc23)CC1 (stereo not shown) [compound 322]	< 10	> 100
COc1ccc(S(=O)(=O)N2CCN(C(C)c3nc(N4CCC5(CC4)OCCO5)c4ccccc4n3)CC2)cc1 (stereo not shown) [compound 323]	10 to 25	25 to 100
COc1ccc(S(=O)(=O)N2CCN(C(C)c3nc(N4CCC[C@@H]4C(=O)O)c4ccccc4n3)CC2)cc1 (stereo partly shown) [compound 324]	25 to 60	< 25
COc1ccc(S(=O)(=O)N2CCN(C(C)c3nc(N4CCCC4C)c4ccccc4n3)CC2)cc1 (stereo not shown) [compound 325]	< 10	> 100
COc1ccc(S(=O)(=O)N2CCN(C(C)c3nc(N4CCCCC4C)c4ccccc4n3)CC2)cc1 (stereo not shown) [compound 326]	< 10	25 to 100
COc1ccc(S(=O)(=O)N2CCN(C(C)c3nc(N4CCC5CCCCC5C4)c4ccccc4n3)CC2)cc1 (stereo not shown) [compound 327]	< 10	> 100
COc1ccc(S(=O)(=O)N2CCN(C(C)c3nc(N4CCC5(CC4)OCCCO5)c4ccccc4n3)CC2)cc1 (stereo not shown) [compound 328]	10 to 25	> 100
CCc1ccc(S(=O)(=O)N2CCN(C(C)c3nc4ccccc4c(=O)n3C)CC2)cc1 (stereo not shown) [compound 329]	< 10	25 to 100
CC(c1nc2ccccc2c(=O)n1C)N1CCN(S(=O)(=O)c2ccc(CC#N)cc2)CC1 (stereo not shown) [compound 330]	25 to 60	25 to 100

Structure (SMILES)	EC50 [µM]	Emax [%]
COc1ccc(S(=O)(=O)N2CCN(C(C)c3nc4ccccc4c(=O)n3CC(C)C)CC2)cc1 (stereo not shown) [compound 331]	< 10	> 100
COc1ccc(S(=O)(=O)N2CCN(C(C)c3nc4ccccc4c(=O)n3CC(C)(C)C)CC2)cc1 (stereo not shown) [compound 332]	25 to 60	25 to 100
COc1ccc(S(=O)(=O)N2CCN(C(C)c3nc(N4CCCC4)c4ccccc4n3)CC2)cc1 (stereo not shown) [compound 333]	10 to 25	25 to 100
CCC(c1nc2ccccc2c(=O)[nH]1)N1CCN(S(=O)(=O)c2ccc(OC)cc2)CC1 (stereo not shown) [compound 334]	25 to 60	25 to 100
CCCC(c1nc2ccccc2c(=O)[nH]1)N1CCN(S(=O)(=O)c2ccc(OC)cc2)CC1 (stereo not shown) [compound 335]	10 to 25	25 to 100
CCC(c1nc(N2CCCCC2)c2ccccc2n1)N1CCN(S(=O)(=O)c2ccc(OC)cc2)CC1 (stereo not shown) [compound 336]	< 10	> 100
CCC(c1nc2ccccc2c(=O)n1C)N1CCN(S(=O)(=O)c2ccc(OC)cc2)CC1 (stereo not shown) [compound 337]	10 to 25	> 100
CCC(c1nc2ccccc2c(=O)n1CC)N1CCN(S(=O)(=O)c2ccc(OC)cc2)CC1 (stereo not shown) [compound 338]	< 10	> 100
CCCC(c1nc(N2CCCCC2)c2ccccc2n1)N1CCN(S(=O)(=O)c2ccc(OC)cc2)CC1 (stereo not shown) [compound 339]	< 10	> 100
CCCC(c1nc2ccccc2c(=O)n1C)N1CCN(S(=O)(=O)c2ccc(OC)cc2)CC1 (stereo not shown) [compound 340]	< 10	> 100
CCCC(c1nc2ccccc2c(=O)n1CC)N1CCN(S(=O)(=O)c2ccc(OC)cc2)CC1 (stereo not shown) [compound 341]	< 10	> 100
CCCn1c(C(CC)N2CCN(S(=O)(=O)c3ccc(OC)cc3)CC2)nc2ccccc2c1=O (stereo not shown) [compound 342]	< 10	25 to 100
COc1ccc(S(=O)(=O)N2CCN(C(C)c3nc(OC4CCC(O)CC4)c4ccccc4n3)CC2)cc1 (stereo not shown) [compound 343]	25 to 60	25 to 100
COc1ccc(S(=O)(=O)N2CCN(C(C)c3nc(N4CCCC(CO)C4)c4ccccc4n3)CC2)cc1 (stereo not shown) [compound 344]	10 to 25	25 to 100
COc1ccc(S(=O)(=O)N2CCN(C(C)c3nc(N4CCN(C)CC4)c4ccccc4n3)CC2)cc1 (stereo not shown) [compound 345]	25 to 60	25 to 100
COc1ccc(S(=O)(=O)N2CCN(C(C)c3nc(N4CCC(O)CC4)c4ccccc4n3)CC2)cc1 (stereo not shown) [compound 346]	25 to 60	25 to 100
COc1ccc(S(=O)(=O)N2CCN(C(C)c3nc(N4CCC(CO)CC4)c4ccccc4n3)CC2)cc1 (stereo not shown) [compound 347]	25 to 60	25 to 100
COc1ccc(S(=O)(=O)N2CCN(C(C)c3nc(OC4CCC(C)C(C)C4)c4ccccc4n3)CC2)cc1 (stereo not shown) [compound 348]	< 10	> 100
CCOC(=O)c1cnc(C(C)N2CCN(S(=O)(=O)c3ccc(OC)cc3)CC2)[nH]c1=O (stereo not shown) [compound 349]	25 to 60	25 to 100
CSc1ccc(S(=O)(=O)N2CCN(C(C)c3nc4ccccc4c(=O)n3C)CC2)cc1 (stereo not shown) [compound 350]	25 to 60	< 25
